Twelve compounds from patent US8653096B2, “Chemokine receptor antagonists and methods of use thereof” (Millennium Pharmaceuticals, Inc., priority 2001, dated 2014) can be followed below.

The target of the assay is T1, RANTES/MIP-1α chemokine receptor (CCR1) in THP-1 cell membranes (Homo sapiens, UniProt P32246).
T1 construct: Membranes were prepared from THP-1 cells (ATCC #TIB202); host or cells: THP-1 cells (membrane preparation)
T1 sequence (P32246 1-355): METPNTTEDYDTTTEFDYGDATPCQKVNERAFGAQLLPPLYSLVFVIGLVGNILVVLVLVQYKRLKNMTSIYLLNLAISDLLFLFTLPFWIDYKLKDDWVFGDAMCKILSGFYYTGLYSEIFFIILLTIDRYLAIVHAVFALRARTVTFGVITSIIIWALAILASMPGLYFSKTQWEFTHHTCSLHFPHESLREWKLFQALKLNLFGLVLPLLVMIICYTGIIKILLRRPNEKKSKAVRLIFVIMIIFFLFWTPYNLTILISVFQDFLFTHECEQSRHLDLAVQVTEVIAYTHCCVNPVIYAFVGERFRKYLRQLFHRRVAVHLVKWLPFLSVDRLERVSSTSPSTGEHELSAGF
Put plainly: Receptor binding assay: 125I-RANTES or 125I-MIP-1α binding to THP-1 cell membranes. Conditions: inhibitor concentration required for 50% inhibition of specific binding; 125I-RANTES or 125I-MIP-1α as ligand, THP-1 cell membranes; read-out: IC50.
Take `CC(C)(Oc1ccc2c(c1)C(=CCCN1CCC(O)(c3ccc(Cl)cc3)CC1)c1cccnc1CO2)C(N)=O` [Example 211, 1-[3-(7-(1-Carbamoyl-1-methyl)ethyloxy-5,11-dihydro [1]benzoxepino[2,3-b]pyridin-5-ylidene)propyl]-4-(4-chlorophenyl)piperidin-4-ol]: the IC50 is below 1000 nM.

On to `CNC(=O)C(C)(C)Oc1ccc2c(c1)C(=CCCN1CCC(O)(c3ccc(Cl)cc3)CC1)c1cccnc1CO2` [Example 212, 4-(4-Chlorophenyl)-1-[3-(5,11-dihydro-7-(1-methylaminocarbonyl-1-methyl)ethyloxy[1]benzoxepino[2,3-b]pyridin-5-ylidene)propyl]piperidin-4-ol], for which the IC50 is below 1000 nM.

`CN(C)C(=O)C=Cc1ccc2c(c1)C(=CCCN1CCC(O)(c3ccc(Cl)cc3)CC1)c1cccnc1CO2` [Example 215, 4-(4-Chlorophenyl)-1-[3-(7-(2-dimethylaminocarboxy)ethenyl-5,11-dihydro[1]benzoxepino[2,3-b]pyridin-5-ylidene)propyl]piperidin-4-ol]: the concentration for half-maximal inhibition (IC50) is below 1000 nM.

Take `CC(C)(O)c1ccc2c(c1)C(=CCCN1CCC(O)(c3ccc(Cl)cc3)CC1)c1cccnc1CO2` [Example 242, 4-(4-Chlorophenyl)-1-[3-(5,11-dihydro-7-(1-hydroxy-1-methyl)ethyl[1]benzoxepino[2,3-b]pyridin-5-ylidene)propyl]piperidin-4-ol]: the IC50 is below 1000 nM.

Consider `COc1ccc2c(c1)C(=CCCN1CCOC(c3ccc(Cl)cc3)OCC1)c1cccnc1CO2` [Example 249, 5-(4-Chlorophenyl)-1-[3-(5,11-dihydro-7-methoxy[1]benzoxepino[2,3-b]pyridin-5-ylidene)propyl]-4,6-dioxazacane], for which the half-inhibitory concentration (IC50) is below 1000 nM.

For the compound `CC(C)(Oc1ccc2c(c1)C(=CCC[N+]1(C)CCC(O)(c3ccc(Cl)cc3)CC1)c1cccnc1CO2)C(N)=O` (stereo not drawn) [Example 262, 1-[3-(7-(1-Carbamoyl-1-methyl)ethyloxy-5,11-dihydro[1]benzoxepino[2,3-b]pyridin-5-ylidene)propyl]-4-(4-chlorophenyl)-4-hydroxy-1-methylpiperidinium iodide], the IC50 was below 1000 nM.

As for `COC(=O)c1ccc2c(c1)C(=CCCN1CCC(O)(c3ccc(Cl)cc3)CC1)c1cccnc1CO2` [Example 273], the concentration for half-maximal inhibition (IC50) was below 1000 nM.

For `OC1(c2ccc(Cl)cc2)CCN(CCC=C2c3cc(CN4CCOCC4)ccc3OCc3ncccc32)CC1` [Example 278, 4-(4-Chlorophenyl)-1-[3-(5,11-dihydro-7-(4-morpholino)methyl[1]benzoxepino[2,3-b]pyridin-5-ylidene)propyl]piperidin-4-ol], the IC50 is below 1000 nM.

For `OCCCc1ccc2c(c1)C(=CCCN1CCC(O)(c3ccc(Cl)cc3)CC1)c1cccnc1CO2` [Example 289, 4-(4-Chlorophenyl)-1-[3-(7-(1-(3-hydroxy)propyl)-5,11-dihydro[1]benzoxepino[2,3-b]pyridin-5-ylidene)propyl]piperidin-4-ol], the concentration for half-maximal inhibition (IC50) is below 1000 nM.

Regarding `CCOC(=O)[C@H]1CCCN(NC(=O)c2ccc3c(c2)C(=CCCN2CCC(O)(c4ccc(Cl)cc4)CC2)c2cccnc2CO3)C1` [Example 422, 4-(4-Chlorophenyl)-1-[3-(5,11-dihydro-7-(S-3-ethoxycarbonyl-piperidine-1-yl)-carbamoyl-[1]benzoxepino[2,3-b]pyridin-5-ylidene)propyl]piperidine-4-ol], the half-maximal inhibitory concentration (IC50) was below 1000 nM.

As for `O=C(OCCN1CCOCC1)c1ccc2c(c1)C(=CCCN1CCC(O)(c3ccc(Cl)cc3)CC1)c1cccnc1CO2` [Example 430, 4-(4-Chlorophenyl)-1-[3-(5,11-dihydro-7-(2-morpholinoethyl-1-yl)-oxycarbonyl-[1]benzoxepino[2,3-b]pyridin-5-ylidene)propyl]piperidine-4-ol], the IC50 is below 1000 nM.

Consider `CCN(CC)CCOC(=O)c1ccc2c(c1)C(=CCCN1CCC(O)(c3ccc(Cl)cc3)CC1)c1cccnc1CO2` [Example 431, 4-(4-Chlorophenyl)-1-[3-(5,11-dihydro-7-(2,2-diethylaminoethyl-1-yl)-oxycarbonyl-[1]benzoxepino[2,3-b]pyridin-5-ylidene)propyl]piperidine-4-ol], for which the IC50 is below 1000 nM.
